# The source made the active and inactive calls.
# Columns and labels:
# [1] = target: Aryl hydrocarbon receptor (Homo sapiens, UniProt P35869); conditions: Potency;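 further: confirmatory quantitative high-throughput screen measuring activation of the AhR signaling pathway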
# HEK293 [2] = assay: optical interference in Abeta FP readout, dose response, artefact control for IDE activator project, biochemical, fluorescence polarization (AID 588442); type: functional, cell-based; conditions: Homo sapiens
# HEK293 [3] = assay: membrane integrity loss in HEK cells – cell-based, fluorescence, cytotoxicity control for IDE activator project, dose response (AID 588440); type: functional; conditions: Homo sapiens;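 further: cytotoxicity by LDH release measuring loss of membrane integrity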
# Insulin-degrading enzyme [4] = target: T1, Insulin-degrading enzyme (Homo sapiens, UniProt P14735); assay: cellular IDE activation of Abeta substrate cleavage – fluorescence polarization, HEK cells, dose response (AID 588439); type: functional, cell-based
# T1 sequence (P14735 whole entry): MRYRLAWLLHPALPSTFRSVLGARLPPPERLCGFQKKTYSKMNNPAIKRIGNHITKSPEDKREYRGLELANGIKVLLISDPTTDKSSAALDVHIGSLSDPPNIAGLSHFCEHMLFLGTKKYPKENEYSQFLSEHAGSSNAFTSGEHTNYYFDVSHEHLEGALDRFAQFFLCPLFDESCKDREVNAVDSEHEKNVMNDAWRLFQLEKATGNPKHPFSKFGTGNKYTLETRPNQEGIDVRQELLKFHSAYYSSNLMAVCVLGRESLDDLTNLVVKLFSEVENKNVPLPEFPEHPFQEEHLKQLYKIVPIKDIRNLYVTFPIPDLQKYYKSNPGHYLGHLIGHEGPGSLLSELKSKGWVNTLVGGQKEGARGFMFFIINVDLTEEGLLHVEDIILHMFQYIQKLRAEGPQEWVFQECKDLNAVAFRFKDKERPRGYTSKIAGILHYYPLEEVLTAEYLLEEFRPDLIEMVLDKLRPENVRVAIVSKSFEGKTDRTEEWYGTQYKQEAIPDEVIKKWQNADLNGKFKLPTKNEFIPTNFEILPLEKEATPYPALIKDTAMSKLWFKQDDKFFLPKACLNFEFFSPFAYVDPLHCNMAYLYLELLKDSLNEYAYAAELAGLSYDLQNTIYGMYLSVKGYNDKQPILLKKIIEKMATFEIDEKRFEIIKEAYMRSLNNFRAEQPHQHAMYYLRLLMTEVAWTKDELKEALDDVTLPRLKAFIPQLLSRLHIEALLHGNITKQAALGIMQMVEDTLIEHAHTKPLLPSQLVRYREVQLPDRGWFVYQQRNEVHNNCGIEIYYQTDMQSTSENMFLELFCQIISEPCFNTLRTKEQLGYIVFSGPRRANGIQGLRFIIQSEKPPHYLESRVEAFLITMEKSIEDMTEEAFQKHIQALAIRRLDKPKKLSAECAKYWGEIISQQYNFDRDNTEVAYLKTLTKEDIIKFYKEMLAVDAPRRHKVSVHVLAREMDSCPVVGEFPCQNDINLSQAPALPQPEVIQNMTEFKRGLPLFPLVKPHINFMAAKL
# Insulin-degrading enzyme [5] = target: T1, Insulin-degrading enzyme; assay: recombinant IDE activation, cell-free – biochemical, fluorescence polarization, counter-screen for IDE activator project, dose response (AID 588681)
# Beta-lactamase [6] = target: Beta-lactamase (Pseudomonas aeruginosa, UniProt Q79MP6);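 further: biochemical dose-response test of metallo-beta-lactamase enzyme inhibition, read out by epi-absorbance; purified recombinant IMP-1 metallo-beta-lactamase with nitrocefin as substrate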
# Chain of Beta-lactamase (Pseudomonas aeruginosa, UniProt Q79MP6) (Q79MP6 whole entry): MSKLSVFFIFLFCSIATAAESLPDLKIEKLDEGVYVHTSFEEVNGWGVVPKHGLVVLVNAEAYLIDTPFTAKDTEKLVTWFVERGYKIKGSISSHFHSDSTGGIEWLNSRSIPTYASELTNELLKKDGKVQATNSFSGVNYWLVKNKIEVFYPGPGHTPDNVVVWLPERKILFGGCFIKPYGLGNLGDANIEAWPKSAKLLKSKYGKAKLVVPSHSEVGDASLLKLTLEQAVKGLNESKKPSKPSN
# Beta-lactamase [7] = target: Beta-lactamase (Salmonella choleraesuis (strain SC-B67), UniProt Q5J463)
# Chain of Beta-lactamase (Salmonella choleraesuis (strain SC-B67), UniProt Q5J463) (Q5J463 whole entry): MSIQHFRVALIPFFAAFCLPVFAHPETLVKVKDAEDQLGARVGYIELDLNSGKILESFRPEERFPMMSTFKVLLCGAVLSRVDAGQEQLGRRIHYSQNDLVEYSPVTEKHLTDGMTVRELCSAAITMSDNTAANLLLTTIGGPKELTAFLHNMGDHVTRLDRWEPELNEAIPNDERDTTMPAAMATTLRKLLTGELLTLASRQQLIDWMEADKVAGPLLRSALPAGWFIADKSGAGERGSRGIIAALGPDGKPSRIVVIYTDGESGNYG
# Beta Lactamase = Beta Lactamase (Pseudomonas aeruginosa, UniProt Q932Y6);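 further: confirmatory high-throughput screen measuring VIM-2 metallo-beta-lactamase inhibition by epi-absorbance in dose response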
# [8] = bead-based luminescence quenchers, dual-tagged ARNT – biochemical, AlphaScreen, cherry-pick, artefact control for ARNT-TACC3 interaction inhibitor project, dose response (AID 651705); type: functional;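 further: AlphaScreen bead proximity signal that flags compounds interfering with the detection technology; potency reflects signal decrease which marks the compound as an assay artifact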
# [9] = potency of ADAM10 substrate cleavage blockers – biochemical, QFRET, dose response (AID 743254);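 further: ADAM10 enzyme with the DM2 quenched FRET peptide as substrate; EDANS fluorescence gain as the protease cuts the substrate; inhibitor potency against ADAM10 proteolytic activity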
# Orexin receptor type 2 [10] = target: T2, Orexin receptor type 2 (Homo sapiens, UniProt O43614); assay: Counterscreen assay for antagonists of the orexin 1 receptor (OX1R; HCRTR1): Fluorescence-based cell-based dose response assay for antagonists of the orexin 2 receptor (OX2R; HCRTR2), run by assay provider.; type: functional
# T2 sequence (O43614 whole entry): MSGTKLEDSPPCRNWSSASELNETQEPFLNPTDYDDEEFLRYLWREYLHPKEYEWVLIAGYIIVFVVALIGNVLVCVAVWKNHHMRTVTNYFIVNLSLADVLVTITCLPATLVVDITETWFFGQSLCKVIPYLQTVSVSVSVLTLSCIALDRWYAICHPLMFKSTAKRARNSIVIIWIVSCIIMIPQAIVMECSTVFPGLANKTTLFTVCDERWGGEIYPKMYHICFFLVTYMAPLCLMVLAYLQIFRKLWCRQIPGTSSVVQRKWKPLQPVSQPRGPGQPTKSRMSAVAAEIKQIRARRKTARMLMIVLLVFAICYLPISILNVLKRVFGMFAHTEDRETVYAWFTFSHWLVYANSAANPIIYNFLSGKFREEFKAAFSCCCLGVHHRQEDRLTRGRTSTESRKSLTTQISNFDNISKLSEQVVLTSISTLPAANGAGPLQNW
# [11] = target: T3, Probable nicotinate-nucleotide adenylyltransferase (Staphylococcus aureus (strain N315), UniProt P65502); type: functional, Staphylococcus aureus subsp. aureus N315; conditions: read-out: IC50_Mean;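 on IC50 Mean: confirmatory dose-response retesting of NadD inhibitor hits first found in an ultra-high-throughput screen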
# T3 sequence (P65502 whole entry): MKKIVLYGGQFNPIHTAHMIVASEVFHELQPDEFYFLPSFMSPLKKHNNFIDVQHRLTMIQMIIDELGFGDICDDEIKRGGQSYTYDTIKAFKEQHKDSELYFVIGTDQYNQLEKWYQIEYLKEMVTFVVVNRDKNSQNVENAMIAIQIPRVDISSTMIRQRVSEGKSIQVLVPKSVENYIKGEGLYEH
# [12] = (§1) Counterscreen for antagonists of the orexin 1 receptor (OX1R; HCRTR1): Fluorescence-based cell-based high throughput dose response assay to identify antagonists of the parental CHO cell line. [Related pubchem assays (depositor defined):AID434989, AID435008, AID463079, AID485270, AID492963, AID492964, AID492965, AID493232, AID504699, AID504701]; type: functional
# [13] = target: Peroxisome proliferator-activated receptor gamma/Nuclear receptor coactivator 3 (Homo sapiens, UniProt P37231); type: functional;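 further: agonist potency for raising coactivator recruitment to the receptor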
# [14] = target: T3, Probable nicotinate-nucleotide adenylyltransferase; type: functional, Staphylococcus aureus subsp. aureus N315
# [15] = target: T4, Orexin/Hypocretin receptor type 1 (Homo sapiens, UniProt O43613); assay: Homogeneous Time Resolved Fluorescence (HTRF)-based cell-based high throughput dose response assay for antagonists of the orexin 1 receptor (OX1R; HCRTR1). [Related pubchem assays (depositor defined):AID434989, AID435008, AID463079, AID485270, AID492963, AID492964, AID492965, AID493232, AID504717, AID504718]; type: functional
# T4 sequence (O43613 whole entry): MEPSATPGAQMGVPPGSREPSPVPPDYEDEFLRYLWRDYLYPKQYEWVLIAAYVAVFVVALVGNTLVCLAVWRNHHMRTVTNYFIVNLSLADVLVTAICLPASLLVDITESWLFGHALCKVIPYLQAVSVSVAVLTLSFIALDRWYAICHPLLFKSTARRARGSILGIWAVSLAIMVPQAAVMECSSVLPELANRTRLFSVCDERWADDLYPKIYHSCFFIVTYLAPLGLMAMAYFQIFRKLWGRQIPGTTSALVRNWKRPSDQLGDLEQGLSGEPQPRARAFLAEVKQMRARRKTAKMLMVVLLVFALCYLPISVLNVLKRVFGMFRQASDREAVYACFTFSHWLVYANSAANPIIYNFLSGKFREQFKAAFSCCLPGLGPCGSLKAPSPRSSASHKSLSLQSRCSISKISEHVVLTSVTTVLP
# [16] = target: Peroxisome proliferator-activated receptor gamma/Nuclear receptor coactivator 1 (Homo sapiens, UniProt P37231); type: functional;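 further: agonist potency as compounds enhance coactivator SRC-1 recruitment to PPARgamma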
# [17] = target: Peroxisome proliferator-activated receptor gamma/Nuclear receptor coactivator 2 (Homo sapiens, UniProt P37231); type: functional;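 further: agonist potency for raising coactivator recruitment to the receptor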
# CHO-K1 = assay: as §1, with “Homogeneous time resolved fluorescence (HTRF)-based” for “Fluorescence-based”, “cell-based” for “cell-based high throughput”, “CHO-K1” for “CHO”; type: functional; conditions: Cricetulus griseus;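 further: potency for inhibition of ATP-stimulated IP1 production as antagonists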
# [18] = target: T4, Orexin/Hypocretin receptor type 1; assay: Fluorescence-based cell-based high throughput dose response assay for antagonists of the orexin 1 receptor (OX1R; HCRTR1). [Related pubchem assays (depositor defined):AID434989, AID435008, AID463079, AID485270, AID492963, AID492964, AID492965, AID493232, AID504717, AID504718]; type: functional
# [19] = target: Disintegrin and metalloproteinase domain-containing protein 17 (Homo sapiens, UniProt P78536); assay: inhibition of ADAM17 substrate cleavage – biochemical, quenched FRET substrate, counter-screen for ADAM10 exosite inhibitor project, dose response (AID 743253)
# Chain of Disintegrin and metalloproteinase domain-containing protein 17 (P78536 whole entry, the tested form may be a part): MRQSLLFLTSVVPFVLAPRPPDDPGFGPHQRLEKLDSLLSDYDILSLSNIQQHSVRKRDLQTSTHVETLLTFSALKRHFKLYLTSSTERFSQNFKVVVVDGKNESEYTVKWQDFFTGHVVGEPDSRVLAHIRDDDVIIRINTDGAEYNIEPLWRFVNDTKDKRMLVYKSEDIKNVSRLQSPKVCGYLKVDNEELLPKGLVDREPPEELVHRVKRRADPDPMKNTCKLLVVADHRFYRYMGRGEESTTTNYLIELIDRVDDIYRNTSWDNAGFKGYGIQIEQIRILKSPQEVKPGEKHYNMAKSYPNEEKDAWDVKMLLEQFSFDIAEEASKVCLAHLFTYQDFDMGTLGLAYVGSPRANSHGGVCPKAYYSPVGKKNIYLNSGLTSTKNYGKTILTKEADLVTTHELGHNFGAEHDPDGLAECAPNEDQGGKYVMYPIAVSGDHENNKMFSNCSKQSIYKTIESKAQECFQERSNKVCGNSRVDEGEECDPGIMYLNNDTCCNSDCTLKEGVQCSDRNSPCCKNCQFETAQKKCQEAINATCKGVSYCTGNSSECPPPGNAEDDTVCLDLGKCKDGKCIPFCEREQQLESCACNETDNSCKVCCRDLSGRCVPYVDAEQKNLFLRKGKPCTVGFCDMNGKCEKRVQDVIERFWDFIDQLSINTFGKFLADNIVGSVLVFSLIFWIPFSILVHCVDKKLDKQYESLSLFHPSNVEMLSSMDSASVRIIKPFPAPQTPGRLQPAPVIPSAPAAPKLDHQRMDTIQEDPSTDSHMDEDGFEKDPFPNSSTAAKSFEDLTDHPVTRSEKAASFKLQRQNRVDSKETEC
# Orexin receptor type 2 [20] = target: T2, Orexin receptor type 2; assay: Counterscreen assay for antagonists of the orexin 1 receptor (OX1R; HCRTR1): Homogeneous Time Resolved Fluorescence (HTRF)-based cell-based dose response assay for antagonists of the orexin 2 receptor (OX2R; HCRTR2), run by assay provider.; type: functional
# [21] = loss of viability in HepG2 cells – cell-based, CellTiter-Glo, cherry-picked, cytotoxicity control for Shn3 inhibitor project, dose response (AID 624134); type: functional
# Protein Wnt-3a = Protein Wnt-3a (Mus musculus, UniProt P27467); assay: antagonism of Wnt3a pathway luciferase reporter – Wnt-LIGHT cells, luminescence, selectivity assay for Gli-SUFU antagonist project, dose response (AID 651570); type: functional; conditions: read-out: IC50_Mean;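 further: Wnt-LIGHT reporter cells stimulated with conditioned medium from Wnt3a-producing cells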
# Chain of Protein Wnt-3a (P27467 whole entry): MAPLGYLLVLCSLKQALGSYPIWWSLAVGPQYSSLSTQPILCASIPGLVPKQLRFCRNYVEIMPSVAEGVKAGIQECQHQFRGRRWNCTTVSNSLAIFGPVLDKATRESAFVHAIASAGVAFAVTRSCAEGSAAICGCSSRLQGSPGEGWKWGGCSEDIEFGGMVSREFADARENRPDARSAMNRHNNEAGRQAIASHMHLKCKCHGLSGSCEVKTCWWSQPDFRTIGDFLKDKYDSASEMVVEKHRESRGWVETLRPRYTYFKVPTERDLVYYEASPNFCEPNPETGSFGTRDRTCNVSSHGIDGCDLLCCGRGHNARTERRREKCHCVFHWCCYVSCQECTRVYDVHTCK
# [22] = target: Neurotensin receptor type 1 (Homo sapiens, UniProt P30989); type: functional;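 further: Image-based confirmatory dose-response assay measuring agonist activity at NTR1; NTR1-expressing U2OS osteosarcoma cells imaged for beta-arrestin GFP spot formation; agonist potency where compounds increase beta-arrestin recruitment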
# Chain of Neurotensin receptor type 1 (P30989 whole entry): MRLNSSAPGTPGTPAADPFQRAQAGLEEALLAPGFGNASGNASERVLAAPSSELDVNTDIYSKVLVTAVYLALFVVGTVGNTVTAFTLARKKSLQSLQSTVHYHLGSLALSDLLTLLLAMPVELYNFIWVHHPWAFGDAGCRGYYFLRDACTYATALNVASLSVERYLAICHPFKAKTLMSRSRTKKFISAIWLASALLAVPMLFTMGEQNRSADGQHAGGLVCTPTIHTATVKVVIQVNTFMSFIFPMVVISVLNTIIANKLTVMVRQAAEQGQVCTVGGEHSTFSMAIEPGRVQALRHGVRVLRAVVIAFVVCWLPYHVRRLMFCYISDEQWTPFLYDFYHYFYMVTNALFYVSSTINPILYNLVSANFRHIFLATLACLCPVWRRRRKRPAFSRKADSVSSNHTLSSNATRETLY
# [23] = reduction of Shn3 3'UTR-driven luciferase in osteoblasts – cell-based, Clone20 osteoblasts, firefly luciferase, cherry-picked, dose response (AID 624132); type: functional;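 further: firefly luciferase luminescence from reporter carrying the Shn3 3'UTR in osteoblasts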
# [24] = non-specific 3'UTR reporter inhibition in Clone20-Shn3RL – cell-based, Renilla luciferase, cherry-picked, counter-screen for Shn3 inhibitor project, dose response (AID 624133); type: functional
# [25] = Luminescence Cell-Based Dose Retest to Confirm Inhibitors of Cancer Stem Cells. [Related pubchem assays (depositor defined):AID2717, AID2721]; type: functional; conditions: Homo sapiens
# [26] = target: T5, Mitochondrial peptide methionine sulfoxide reductase (Bos taurus, UniProt P54149); type: functional;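 further: absorbance read-out, biochemical high-throughput dose-response screen for MsrA inhibitors, confirmatory; recombinant bovine MsrA coupled to E. coli TrxB with NADPH and selenocystamine; potency is for inhibitors of MsrA activity on DMSO substrate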
# T5 sequence (P54149 whole entry): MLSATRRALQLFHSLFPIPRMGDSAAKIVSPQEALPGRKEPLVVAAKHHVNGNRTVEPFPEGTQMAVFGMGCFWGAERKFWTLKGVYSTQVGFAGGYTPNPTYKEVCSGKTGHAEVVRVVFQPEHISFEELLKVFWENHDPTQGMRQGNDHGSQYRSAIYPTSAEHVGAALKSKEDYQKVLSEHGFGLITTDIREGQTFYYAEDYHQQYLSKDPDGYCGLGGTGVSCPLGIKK
# [27] = nonselective StAR promoter luciferase inhibitors – cell-based, luminescence, luciferase reporter, counter-screen for LRH-1 inverse agonist project, dose response (AID 651969); type: functional
# Steroidogenic factor 1 = Steroidogenic factor 1 (Homo sapiens, UniProt Q13285); assay: Counterscreen for inverse agonists of the liver receptor homolog-1 (LRH-1; NR5A2): Luminescence-based cell-based high throughput dose response assay to identify inverse agonists of the Steroidogenic Factor 1 Nuclear Receptor (SF1; NR5A1).; type: functional
# Chain of Steroidogenic factor 1 (Q13285 whole entry): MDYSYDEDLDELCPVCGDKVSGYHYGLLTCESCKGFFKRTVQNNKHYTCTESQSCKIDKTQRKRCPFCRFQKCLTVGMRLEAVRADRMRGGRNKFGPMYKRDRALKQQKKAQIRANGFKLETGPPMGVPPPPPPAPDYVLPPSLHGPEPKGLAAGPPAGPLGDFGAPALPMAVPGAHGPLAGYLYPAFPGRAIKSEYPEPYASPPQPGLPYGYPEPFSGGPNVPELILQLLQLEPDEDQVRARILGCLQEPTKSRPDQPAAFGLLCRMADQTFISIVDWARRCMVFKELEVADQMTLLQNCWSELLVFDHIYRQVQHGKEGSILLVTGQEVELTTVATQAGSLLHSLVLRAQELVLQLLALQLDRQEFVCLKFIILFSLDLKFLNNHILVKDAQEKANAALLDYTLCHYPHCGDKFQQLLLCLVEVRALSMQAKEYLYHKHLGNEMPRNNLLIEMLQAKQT
# [28] = target: Nuclear receptor subfamily 5 group A member 2 (Homo sapiens, UniProt O00482); type: functional, cell-based;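 further: HEK293T cells transfected with LRH-1 and a StAR promoter luciferase reporter; potency for inhibitors that lower LRH-1 driven reporter light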
# Chain of Nuclear receptor subfamily 5 group A member 2 (O00482 whole entry): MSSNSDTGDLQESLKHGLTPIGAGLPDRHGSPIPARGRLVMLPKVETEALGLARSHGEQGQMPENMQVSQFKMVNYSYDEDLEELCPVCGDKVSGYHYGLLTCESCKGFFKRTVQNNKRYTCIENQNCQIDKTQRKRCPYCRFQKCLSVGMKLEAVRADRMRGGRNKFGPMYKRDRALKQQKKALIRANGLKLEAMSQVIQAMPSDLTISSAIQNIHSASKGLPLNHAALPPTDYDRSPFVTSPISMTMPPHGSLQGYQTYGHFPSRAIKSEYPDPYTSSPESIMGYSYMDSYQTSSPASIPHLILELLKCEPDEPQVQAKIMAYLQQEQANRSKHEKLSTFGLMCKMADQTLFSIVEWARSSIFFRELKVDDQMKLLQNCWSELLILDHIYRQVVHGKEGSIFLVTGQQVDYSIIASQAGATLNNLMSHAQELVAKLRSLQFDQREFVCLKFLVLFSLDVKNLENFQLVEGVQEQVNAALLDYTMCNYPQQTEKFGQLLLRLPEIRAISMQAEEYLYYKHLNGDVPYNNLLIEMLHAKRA
# [29] = target: DNA repair protein RAD52 homolog (Homo sapiens, UniProt P43351); type: functional, biochemical
# Chain of DNA repair protein RAD52 homolog (P43351 whole entry): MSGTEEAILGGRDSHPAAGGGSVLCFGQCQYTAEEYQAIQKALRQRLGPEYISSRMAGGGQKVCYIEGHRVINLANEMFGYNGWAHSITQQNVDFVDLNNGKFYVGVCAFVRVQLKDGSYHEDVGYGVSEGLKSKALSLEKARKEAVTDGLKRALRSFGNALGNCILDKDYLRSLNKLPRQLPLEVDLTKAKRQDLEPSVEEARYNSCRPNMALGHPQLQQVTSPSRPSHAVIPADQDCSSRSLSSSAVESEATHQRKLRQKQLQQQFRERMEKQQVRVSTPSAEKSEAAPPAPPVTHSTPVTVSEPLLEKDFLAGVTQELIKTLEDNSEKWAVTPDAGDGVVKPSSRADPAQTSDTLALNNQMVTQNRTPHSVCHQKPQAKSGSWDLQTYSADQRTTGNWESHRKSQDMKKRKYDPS
# [30] = target: FAD-linked sulfhydryl oxidase ALR (Homo sapiens, UniProt P55789); assay: ALR-catalysed DTT oxidation blockers – biochemical, H2O2 detection, luminescence, cherry-pick, dose response (AID 493248)
# Chain of FAD-linked sulfhydryl oxidase ALR (P55789 whole entry): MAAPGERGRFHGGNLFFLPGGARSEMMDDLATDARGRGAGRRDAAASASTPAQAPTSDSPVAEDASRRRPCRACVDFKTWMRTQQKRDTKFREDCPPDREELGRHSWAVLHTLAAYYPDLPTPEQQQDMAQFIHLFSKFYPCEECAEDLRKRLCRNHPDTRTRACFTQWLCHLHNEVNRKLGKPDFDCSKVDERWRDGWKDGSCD
# [31] = target: DNA repair and recombination protein RAD54-like (Homo sapiens, UniProt Q92698); assay: RAD54 Holliday junction migration blockers – biochemical, fluorescence, cherry-picked samples, dose series, confirmation (AID 651657); type: functional
# Chain of Aryl hydrocarbon receptor (P35869 whole entry): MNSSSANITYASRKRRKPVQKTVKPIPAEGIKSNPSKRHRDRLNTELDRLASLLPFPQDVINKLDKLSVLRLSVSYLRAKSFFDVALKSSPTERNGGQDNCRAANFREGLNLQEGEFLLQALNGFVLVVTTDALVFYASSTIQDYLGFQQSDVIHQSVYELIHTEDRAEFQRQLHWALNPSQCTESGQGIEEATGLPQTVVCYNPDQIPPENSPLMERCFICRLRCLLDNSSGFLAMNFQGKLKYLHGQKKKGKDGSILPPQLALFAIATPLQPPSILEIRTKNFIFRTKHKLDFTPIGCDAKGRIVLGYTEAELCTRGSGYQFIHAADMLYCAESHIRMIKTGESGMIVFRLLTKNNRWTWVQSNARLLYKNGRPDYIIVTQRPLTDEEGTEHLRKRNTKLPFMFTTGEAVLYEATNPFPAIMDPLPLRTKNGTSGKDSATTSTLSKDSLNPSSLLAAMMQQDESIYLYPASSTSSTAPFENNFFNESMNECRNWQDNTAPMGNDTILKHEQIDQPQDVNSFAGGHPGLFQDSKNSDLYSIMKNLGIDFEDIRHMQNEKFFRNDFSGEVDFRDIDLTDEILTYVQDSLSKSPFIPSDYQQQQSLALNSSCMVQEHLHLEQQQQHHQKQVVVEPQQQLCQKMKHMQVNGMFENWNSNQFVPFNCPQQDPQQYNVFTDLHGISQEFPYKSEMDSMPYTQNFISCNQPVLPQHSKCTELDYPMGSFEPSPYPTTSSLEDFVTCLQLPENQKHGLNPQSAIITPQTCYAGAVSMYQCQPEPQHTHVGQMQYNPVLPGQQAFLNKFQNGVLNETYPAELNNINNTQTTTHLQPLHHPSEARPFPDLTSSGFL
compound,measurement,setting,value
COC(=O)Nc1cccc(OC(=O)Nc2cccc(C)c2)c1,AC50,[1],39.8 µM (inconclusive)
COC(=O)C(C(=O)OC)c1ncccc1[N+](=O)[O-],EC50,HEK293 [2],> 55.9 µM (inactive)
same,IC50,HEK293 [3],> 89.1 µM (inactive)
same,EC50,Insulin-degrading enzyme [4],> 54.7 µM (inactive)
same,EC50,Insulin-degrading enzyme [5],> 54.7 µM (inactive)
O=C1C2C(c3ccccc3)C=CC(c3ccccc3)C2C(=O)N1c1ccncc1 (stereo not given),IC50,Beta-lactamase [6],14.6 µM (inactive)
same,IC50,Beta-lactamase [7],> 59.6 µM (inactive)
same,IC50,Beta Lactamase,62.4 µM (inactive)
CC(=O)OC[C@H]1O[C@@H](Sc2cccc3cccnc23)[C@H](OC(C)=O)[C@@H](OC(C)=O)[C@H]1OC(C)=O,AC50,[8],91.4 µM (active)
O=C(CSc1ccc(Br)c2cccc(Cl)c12)Nc1ccc(S(=O)(=O)Nc2nccs2)cc1,IC50,[9],> 69.5 µM (inactive)
same,IC50,Orexin receptor type 2 [10],31.5 µM (inactive)
same,IC50,[11],25.8 µM (active)
same,IC50,[12],> 49.8 µM (inactive)
same,EC50,[13],84.2 µM (not active)
same,IC50,[14],6.53 µM (active)
same,IC50,[15],1.43 µM (active)
same,EC50,[16],61 µM (not active)
same,EC50,[17],28.6 µM (not active)
same,IC50,CHO-K1,> 66.2 µM (inactive)
same,IC50,[18],4.31 µM (active)
same,IC50,[19],> 69.5 µM (inactive)
same,IC50,Orexin receptor type 2 [20],> 50 µM (inactive)
CCCCNc1c(-c2ccc(OC)c(Sc3ccc(OC)cc3)c2)nc2ccccn12,AC50,[21],48.4 µM (active)
same,IC50,Protein Wnt-3a,11.5 µM (active)
same,EC50,[22],32.2 µM (inactive)
same,AC50,[23],0.821 µM (active)
same,AC50,[24],4.38 µM (active)
same,AC50,[25],6 µM (active)
CC(NC(C)c1ccccc1Cl)C(=O)Nc1cccc(S(=O)(=O)N2CCCCC2)c1 (stereo not given),IC50,Orexin receptor type 2 [10],18.9 µM (inactive)
same,IC50,[12],48.8 µM (inactive)
same,IC50,[15],0.238 µM (active)
same,IC50,CHO-K1,> 66.2 µM (inactive)
same,IC50,[18],3.25 µM (active)
same,IC50,Orexin receptor type 2 [20],> 50 µM (inactive)
COC1C(OC(=O)/C=C/C=C/C=C/C=C/C(=O)O)CCC2(CO2)C1C1(C)OC1CC=C(C)C.c1ccc(Nc2ccccc2)cc1 (stereo not given),IC50,[26],94.5 µM (inactive)
O=C(CSc1nc(N2CCOCC2)nc(N2CCOCC2)n1)Nc1ccc([N+](=O)[O-])cc1,EC50,HEK293 [2],21.2 µM (inactive)
same,IC50,HEK293 [3],> 89.2 µM (inactive)
same,EC50,Insulin-degrading enzyme [4],> 54.7 µM (inactive)
same,EC50,Insulin-degrading enzyme [5],> 54.7 µM (inactive)
Cc1cccc(NC(=O)COC(=O)CN2C(=O)c3ccccc3C2=O)c1C,IC50,[27],35.9 µM (inactive)
same,IC50,Steroidogenic factor 1,5.33 µM (active)
same,IC50,[28],46.7 µM (inactive)
COc1ccc(Nc2c3ccccc3nc3ccccc23)cc1,AC50,[29],1.9 µM (active)
same,AC50,[30],0.016 µM (active)
same,AC50,[31],7.04 µM (active)
